Converted amounts (≈) assume the structure as drawn. Read-outs that look alike come from different tables or passages of the source.
Tests used:
[1] = target: T1, E. coli DnaE (DNA polymerase III α-subunit from Escherichia coli) (Escherichia coli, UniProt P10443); experiment: In vitro DnaE single enzyme assay (E. coli); assay type: biochemical
T1 construct: EcDnaE (E. coli DnaE residues 1-1160); 6xHis (N); made in house; host or cells: E. coli BL21(DE3)
Procedure, shortened: (§1)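 His-tagged E. coli DnaE (residues 1-1160, 0.8 μg/ml) or S. aureus DnaE (residues 1-1065, 0.05 μg/ml) incubated 30 min at 30° C. with activated calf thymus DNA, 0.025 mM dATP/dGTP/dCTP and 0.011 mM 3H-dTTP in Tris pH 7.5/Mg acetate. TCA-precipitated labelled DNA counted.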

[2] = target: T2, S. aureus DnaE (DNA polymerase III α-subunit homolog from Staphylococcus aureus) (Staphylococcus aureus, UniProt Q5HF71); experiment: biochemical; assay type: biochemical
T2 construct: SaDnaE (S. aureus DnaE residues 1-1065); 6xHis (N); made in house; host or cells: E. coli BL21-AI
T2 sequence (Q5HF71 1-1065): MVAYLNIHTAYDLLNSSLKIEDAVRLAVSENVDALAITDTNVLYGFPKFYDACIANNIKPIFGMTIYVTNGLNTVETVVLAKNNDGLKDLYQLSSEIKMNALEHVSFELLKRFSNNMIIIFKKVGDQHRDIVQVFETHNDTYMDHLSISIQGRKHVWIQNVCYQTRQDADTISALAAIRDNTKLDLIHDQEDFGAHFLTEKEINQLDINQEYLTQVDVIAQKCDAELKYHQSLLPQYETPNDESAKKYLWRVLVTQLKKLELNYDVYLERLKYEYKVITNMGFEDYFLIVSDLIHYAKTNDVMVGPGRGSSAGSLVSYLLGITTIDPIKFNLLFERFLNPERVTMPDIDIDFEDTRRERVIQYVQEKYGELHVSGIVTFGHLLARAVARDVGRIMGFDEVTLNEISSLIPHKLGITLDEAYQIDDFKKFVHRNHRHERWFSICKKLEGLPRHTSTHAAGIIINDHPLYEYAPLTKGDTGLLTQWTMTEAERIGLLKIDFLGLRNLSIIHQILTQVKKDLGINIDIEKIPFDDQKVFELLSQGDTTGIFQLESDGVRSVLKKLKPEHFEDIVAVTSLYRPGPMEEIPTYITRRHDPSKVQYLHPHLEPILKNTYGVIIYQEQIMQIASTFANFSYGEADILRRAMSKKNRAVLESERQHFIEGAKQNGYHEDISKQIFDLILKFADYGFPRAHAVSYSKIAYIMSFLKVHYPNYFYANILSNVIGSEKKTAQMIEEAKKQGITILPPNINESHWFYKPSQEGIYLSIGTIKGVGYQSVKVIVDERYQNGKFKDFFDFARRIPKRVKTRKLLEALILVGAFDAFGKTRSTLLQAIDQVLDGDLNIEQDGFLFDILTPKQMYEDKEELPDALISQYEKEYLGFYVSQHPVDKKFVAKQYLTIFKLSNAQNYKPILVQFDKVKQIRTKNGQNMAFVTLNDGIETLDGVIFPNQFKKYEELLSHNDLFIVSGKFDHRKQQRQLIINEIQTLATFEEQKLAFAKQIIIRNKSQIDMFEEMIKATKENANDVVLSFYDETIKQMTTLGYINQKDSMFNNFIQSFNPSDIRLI
Procedure, shortened: as §1

[3] = test system: Escherichia coli MB5747 (LS 883, tolC); experiment: microbe, parasite or virus in culture; assay type: cell-based; details: Escherichia coli, read-out: E. coli LS883 tolC (MIC), MHII broth; * = some reduction of growth versus control at […]
[4] = test system: Pseudomonas aeruginosa MB5890 (CB1101, efflux-deleted); experiment: microbe, parasite or virus in culture; assay type: cell-based; details: Pseudomonas aeruginosa, read-out: P. aeruginosa MB5890 efflux-del (MIC), MHII broth; * = some reduction of growth versus control at […]
[5] = test system: Staphylococcus aureus MB6266 (MRSA COL); experiment: Nargenicin antibacterial assay (MIC), S. aureus; assay type: cell-based; details: Staphylococcus aureus, MRSA, read-out: S. aureus COL (MIC), MHII broth + 50% human serum; * = some reduction of growth versus control at […]
[6] = test system: Streptococcus pneumoniae MB6357 (CL 2883); experiment: Nargenicin antibacterial assay (MIC), S. pneumoniae; assay type: cell-based; details: Streptococcus pneumoniae, read-out: S. pneumoniae MB2883 (MIC), Isosensitest broth; * = some reduction of growth versus control at […]
[7] = read-out: S. aureus DnaE IC50 (converted)
[8] = read-out: E. coli DnaE IC50 (converted)

T1 sequence (P10443 whole entry, the tested form may be a part): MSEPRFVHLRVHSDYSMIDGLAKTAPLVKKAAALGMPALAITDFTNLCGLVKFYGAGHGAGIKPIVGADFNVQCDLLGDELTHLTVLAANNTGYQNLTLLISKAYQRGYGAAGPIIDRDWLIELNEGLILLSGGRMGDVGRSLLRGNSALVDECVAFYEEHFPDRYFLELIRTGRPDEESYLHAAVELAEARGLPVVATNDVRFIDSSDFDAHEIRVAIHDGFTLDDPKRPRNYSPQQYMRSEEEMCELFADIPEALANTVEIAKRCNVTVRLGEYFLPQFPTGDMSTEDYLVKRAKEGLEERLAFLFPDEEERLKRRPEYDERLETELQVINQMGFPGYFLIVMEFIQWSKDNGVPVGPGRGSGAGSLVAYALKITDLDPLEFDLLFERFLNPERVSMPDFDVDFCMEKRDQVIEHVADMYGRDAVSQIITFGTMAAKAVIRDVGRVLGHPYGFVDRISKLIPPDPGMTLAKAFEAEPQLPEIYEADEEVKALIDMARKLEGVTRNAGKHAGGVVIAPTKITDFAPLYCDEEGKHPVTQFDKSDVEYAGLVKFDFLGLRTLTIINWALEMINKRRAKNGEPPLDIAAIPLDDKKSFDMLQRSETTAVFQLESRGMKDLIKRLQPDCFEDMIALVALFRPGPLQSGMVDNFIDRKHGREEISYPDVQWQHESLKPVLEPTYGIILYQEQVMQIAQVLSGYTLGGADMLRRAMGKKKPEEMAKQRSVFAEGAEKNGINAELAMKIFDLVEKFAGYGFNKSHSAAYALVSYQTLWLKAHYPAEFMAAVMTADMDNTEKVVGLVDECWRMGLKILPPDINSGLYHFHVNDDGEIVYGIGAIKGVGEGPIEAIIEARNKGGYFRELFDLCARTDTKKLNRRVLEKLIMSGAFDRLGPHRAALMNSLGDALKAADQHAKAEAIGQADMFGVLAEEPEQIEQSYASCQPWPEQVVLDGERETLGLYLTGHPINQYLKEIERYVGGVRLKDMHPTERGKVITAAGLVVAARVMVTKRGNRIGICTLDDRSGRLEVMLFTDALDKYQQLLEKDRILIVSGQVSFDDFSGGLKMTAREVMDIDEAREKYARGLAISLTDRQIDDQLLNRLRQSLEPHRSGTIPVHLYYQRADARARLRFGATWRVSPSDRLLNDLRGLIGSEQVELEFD

## CO[C@H]1C[C@H]2C=C[C@H]3[C@H]4O[C@]2(/C(C)=C/[C@@H](C)[C@@H]([C@@H](C)O)OC1=O)[C@@H]3[C@H](O)C(C)[C@@H]4NCCN.O=C(O)C(F)(F)F (stereo partly drawn) [Example 155]
[1]; E. coli DnaE IC50
  IC50: > 173 µM
[2]; [7]
  IC50: 2.59 µM
[3]
  MIC: > 128 µg/mL
[4]
  MIC: 128 µg/mL
[5]
  MIC: > 128 µg/mL
[6]
  MIC: > 128 µg/mL

## CO[C@H]1C[C@H]2C=C[C@H]3[C@H]4O[C@]2(/C(C)=C/[C@@H](C)[C@@H]([C@@H](C)O)OC1=O)[C@@H]3[C@H](O)C(C)[C@@H]4NCCN1CCCCC1.O=C(O)C(F)(F)F (stereo partly drawn) [Example 156]
[1]; E. coli DnaE IC50
  IC50: > 155 µM
[2]; [7]
  IC50: 32.5 µM
[3]
  MIC: > 128 µg/mL
[4]
  MIC: > 128 µg/mL
[5]
  MIC: > 128 µg/mL
[6]
  MIC: > 128 µg/mL

## CO[C@H]1C[C@H]2C=C[C@H]3[C@H]4O[C@]2(/C(C)=C/[C@@H](C)[C@@H]([C@@H](C)O)OC1=O)[C@@H]3[C@H](O)C(C)[C@@H]4NCCN1CCCC1.O=C(O)C(F)(F)F (stereo partly drawn) [Example 157]
[1]; E. coli DnaE IC50
  IC50: > 158 µM
[2]; [7]
  IC50: 3.32 µM
[3]
  MIC: > 128 µg/mL
[4]
  MIC: > 128 µg/mL
[5]
  MIC: > 128 µg/mL
[6]
  MIC: > 128 µg/mL

## CO[C@H]1C[C@H]2[C@@H]3O[C@@H]3[C@H]3[C@H]4O[C@]2(/C(C)=C/[C@@H](C)[C@@H]([C@@H](C)O)OC1=O)[C@@H]3[C@H](O)[C@@H](C)[C@H]4OC(=O)c1ccc[nH]1 [Example 160, (1aS, 1bS,3S,6S,7R,9aS,9bS,10R,11R,12R,13R,13aS,13bR,E)-10-hydroxy-6-((R)-1-hydroxyethyl)-3-methoxy-7,9,11-trimethyl-4-oxo-1 a,lb,2,3,4,6,7,9b,10,11,12,13,13a,13b-tetradecahydro-9a,13-epoxyoxireno[2′,3′:3,4]naphtho[2,1-e]oxecin-12-yl 1H-pyrrole-2-carboxylate]
[1]; E. coli DnaE IC50
  IC50: > 188 µM
[2]; [7]
  IC50: 4.14 µM
[3]
  MIC: > 8 µg/mL
[4]
  MIC: > 128 µg/mL
[5]
  MIC: > 8 µg/mL
[6]
  MIC: > 128 µg/mL

## CO[C@H]1C[C@H]2C=C[C@H]3[C@H]4O[C@]2(/C(C)=C/[C@@H](C)[C@@H]([C@@H](C)O)OC1=O)[C@@H]3C(=O)C(C)[C@H]4C[N+](=O)[O-] (stereo partly drawn) [Example 162, (3R,4 S ,7S ,8aS ,10aR,11R,12 S ,14aR,14b S,E)-4-((R)-1-hydroxyethyl)-7-methoxy-1,3,13-trimethyl-12-(nitromethyl)-3 ,4,8,8a,10a,11,12,13-octahydro-11,14b-epoxynaphtho [2,1-e]oxecine-6,14(7H,14aH)-dione]
[1]; E. coli DnaE IC50
  IC50: > 216 µM
[2]; [7]
  IC50: 17.3 µM
[3]
  MIC: > 128 µg/mL
[4]
  MIC: > 128 µg/mL
[5]
  MIC: > 128 µg/mL
[6]
  MIC: > 128 µg/mL

## CO[C@H]1C[C@H]2C=C[C@H]3[C@H]4O[C@]2(/C(C)=C/[C@@H](C)[C@@H]([C@@H](C)O)OC1=O)[C@@H]3[C@H](O)C(C)[C@@H]4CO (stereo partly drawn) [Example 163, (3R,4S,7S,8aS,10aR,11R,12R,14R,14aS,14bS,E)-14-hydroxy-4-((R)-1-hydroxyethyl)-12-(hydroxymethyl)-7-methoxy-1,3,13-trimethyl-3,4,8,8a,10a,11,12,13,14,14a-decahydro-11,14b-epoxynaphtho[2,1-e]oxecin-6(7H)-one]
[1]; E. coli DnaE IC50
  IC50: > 229 µM
[2]; [7]
  IC50: 0.687 µM
[3]
  MIC: 8 µg/mL (≈ 18.3 µM)
[4]
  MIC: 8 µg/mL (≈ 18.3 µM)
[5]
  MIC: > 128 µg/mL
[6]
  MIC: > 128 µg/mL

## CO[C@H]1C[C@H]2C=CC3C4[C@H](O)[C@@H](C)[C@@H](OC(=O)c5cc(-c6cccnc6)c[nH]5)[C@@H]3O[C@]42/C(C)=C/[C@@H](C)[C@@H]([C@@H](C)O)OC1=O [Example 164, (3R,4S,7S,8aS,11R,12R,13R,14R,14bS,E)-14-hydroxy-4-((R)-1-hydroxyethyl)-7-methoxy-1,3,13-trimethyl-6-oxo-3,4,6,7,8,8a,10a,11,12,13,14,14a-dodecahydro-11,14b-epoxynaphtho[2,1-e]oxecin-12-yl 4-(pyridin-3-yl)-1H-pyrrole-2-carboxylate]
[1]; E. coli DnaE IC50
  IC50: > 169 µM
[2]; S. aureus DnaE IC50
  IC50: 10.1 µM
[3]
  MIC: 16 µg/mL (≈ 27 µM)
[4]
  MIC: > 128 µg/mL
[5]
  MIC: > 128 µg/mL
[6]
  MIC: 32 µg/mL (≈ 54 µM)

## COC(=O)/C=C/c1c[nH]c(C(=O)O[C@@H]2[C@H](C)[C@@H](O)[C@@H]3[C@H]4C=CC5C[C@H](OC)C(=O)O[C@H](C(C)O)[C@H](C)/C=C(\C)[C@]53O[C@H]42)c1 (stereo partly drawn) [Example 166]
[1]; [8]
  IC50: > 83.4 µM
[2]; S. aureus DnaE IC50
  IC50: 0.3 µM
[3]
  MIC: 64 µg/mL (≈ 107 µM)
[4]
  MIC: > 64 µg/mL
[5]
  MIC: > 64 µg/mL
[6]
  MIC: > 64 µg/mL

## CO[C@H]1C[C@H]2C=CC3C4[C@H](O)[C@@H](C)[C@@H](OC(=O)c5cc(NC(=O)c6ccccc6)c[nH]5)[C@@H]3O[C@]42/C(C)=C/[C@@H](C)[C@@H]([C@@H](C)O)OC1=O [Example 167, (3R,4S,7S,8aS,11R,12R,13R,14R,14bS,E)-14-hydroxy-4-((R)-1-hydroxyethyl)-7-methoxy-1,3,13-trimethyl-6-oxo-3,4,6,7,8,8a,10a,11,12,13,14,14a-dodecahydro-11,14b-epoxynaphtho[2,1-e]oxecin-12-yl 4-benzamido-1H-pyrrole-2-carboxylate]
[1]; [8]
  IC50: > 158 µM
[2]; S. aureus DnaE IC50
  IC50: 3.15 µM
[3]
  MIC: > 128 µg/mL
[4]
  MIC: > 128 µg/mL
[5]
  MIC: > 128 µg/mL
[6]
  MIC: > 128 µg/mL

## CO[C@H]1C[C@H]2C=CC3C4[C@H](O)[C@@H](C)[C@@H](OC(=O)c5cc(NC(C)=O)c[nH]5)[C@@H]3O[C@]42/C(C)=C/[C@@H](C)[C@@H]([C@@H](C)O)OC1=O [Example 168, (3R,4S,7S,8aS,11R,12R,13R,14R,14bS,E)-14-hydroxy-4-((R)-1-hydroxyethyl)-7-methoxy-1,3,13-trimethyl-6-oxo-3,4,6,7,8,8a,10a,11,12,13,14,14a-dodecahydro-11,14b-epoxynaphtho[2,1-e]oxecin-12-yl 4-acetamido-1H-pyrrole-2-carboxylate]
[1]; [8]
  IC50: > 87.3 µM
[2]; S. aureus DnaE IC50
  IC50: 31.4 µM
[3]
  MIC: > 128 µg/mL
[4]
  MIC: > 64 µg/mL
[5]
  MIC: > 128 µg/mL
[6]
  MIC: > 64 µg/mL

## CO[C@H]1C[C@H]2C=CC3C4[C@H](O)[C@@H](C)[C@@H](OC(=O)c5ccc[nH]5)[C@@H]3O[C@]42/C(C)=C/[C@@H](C)C([C@@H](C)O)NC1=O (stereo partly drawn) [Example 170]
[1]; [8]
  IC50: > 194 µM
[2]; S. aureus DnaE IC50
  IC50: 2.53 µM
[3]
  MIC: 128 µg/mL (≈ 249 µM)
[4]
  MIC: > 128 µg/mL
[5]
  MIC: > 128 µg/mL
[6]
  MIC: > 128 µg/mL

## CO[C@H]1C[C@H]2C=C[C@H]3[C@H]4O[C@]2(/C(C)=C/[C@@H](C)[C@@H](C(C)=O)OC1=O)[C@@H]3C(=O)[C@@H](C)[C@H]4OC(=O)c1ccc[nH]1 [Example 171]
[1]; [8]
  IC50: 176 µM
[2]; S. aureus DnaE IC50
  IC50: 6.84 µM
[3]
  MIC: > 8 µg/mL
[4]
  MIC: > 128 µg/mL
[5]
  MIC: > 8 µg/mL
[6]
  MIC: > 128 µg/mL

## CO[C@H]1C[C@H]2C=CC3C4[C@H](O)[C@@H](C)[C@@H](OC(=O)c5ccc(OC(C)=O)n5O)[C@@H]3O[C@]42/C(C)=C/[C@@H](C)[C@@H]([C@@H](C)O)OC1=O [Example 173]
[1]; [8]
  IC50: > 170 µM
[2]; S. aureus DnaE IC50
  IC50: 0.543 µM
[3]
  MIC: 8 µg/mL (≈ 13.6 µM)
[4]
  MIC: 16 µg/mL (≈ 27.1 µM)
[5]
  MIC: > 128 µg/mL
[6]
  MIC: 128 µg/mL (≈ 217 µM)

## C/C1=C\[C@@H](C)[C@@H](C(C)O)OC(=O)C(O)CC2C=C[C@H]3[C@H]4O[C@@]12[C@@H]3[C@H](O)[C@@H](C)[C@H]4OC(=O)c1ccc[nH]1 (stereo partly drawn) [Example 174]
[1]; [8]
  IC50: 21.9 µM
[2]; S. aureus DnaE IC50
  IC50: 0.0199 µM
[3]
  MIC: 8 µg/mL (≈ 15.9 µM)
[4]
  MIC: > 128 µg/mL
[5]
  MIC: 8 µg/mL
[6]
  MIC: > 128 µg/mL

Reference: patent US9944654B2, “Nargenicin compounds and uses thereof as antibacterial agents” (priority 2014, dated 2018)
